# Measurements published in patent US10370333B2 (Sanford Burnham Prebys Medical Discovery Institute, priority 2012, dated 2019).
# Target: TNAP (Homo sapiens (Human), UniProt P05186)
# Test: TNAP (PPi) inhibition assay, pyrophosphate as substrate
# Assay type: biochemical
# Experimental: Expression plasmids containing a secreted epitope-tagged TNAP were transfected into COS-1 cells for transient expression. The medium was replaced with Opti-MEM 24 h later and serum-free media containing secreted proteins was collected 60 hours after electroporation. The medium was dialyzed against TBS containing 1 mM MgCl2 and […] (to remove phosphate) and filtered through a […] cellulose acetate filter.
# To determine the inhibition selectivity for inhibitor candidates, human TNAP, PLAP or IAP were added to microtiter plates followed by addition of the substrate pNPP (0.5 mM) and activity was measured in 1 M DEA-HCl buffer, pH 9.8 or in 1 M Tris-HCl buffer, pH 7.5, containing 1 mM MgCl2 and 20 μM ZnCl2, in the presence of potential inhibitors (0-30 μM). TNAP, PLAP and IAP activities were adjusted to an approximate λA405 nm, equivalent to 1, measured after 30 min. Residual AP activity in the presence of inhibitors was expressed as percentage of the control activity. To investigate the mechanism of inhibition, double reciprocal plots of enzyme activity (expressed as mA405 nm min−1) vs. substrate concentration were constructed, in the presence of various concentrations of added inhibitors (0-30 μM). The y-axis intercepts of the 1/v vs. 1/[S] plots, were then plotted vs. [I] to graphically extract Ki values as the x-intercept in this plot. […] Inhibitors were further tested and sorted based on their kinetic properties at pH 7.4 using PPi, the relevant natural substrate of TNAP. […] Amounts of released phosphate were measured using the Biomol Green Reagent (Biomol Research Laboratories, Inc., Plymouth Meeting, Pa.).
row,IC50 [µM],SMILES
1,< 0.1,"COc1ccc(OC(F)(F)F)cc1S(=O)(=O)Nc1cnc2ccccc2c1 [Example X-6, 2-Methoxy-N-(quinolin-3-yl)-5-(trifluoromethoxy)benzenesulfonamide]"
2,< 0.1,"CCCNC(=O)c1ccc2ncc(NS(=O)(=O)c3cc(OC)ccc3OC)cc2c1 [Example IX-12, 3-(2,5-Dimethoxy-benzenesulfonylamino)-quinoline-6-carboxylic Acid Propylamide]"
3,< 0.1,"COc1ccc(OC(F)(F)F)cc1S(=O)(=O)Nc1cncc(-c2cnn(C)c2)c1 [Example XI-32, 2-Methoxy-N-(5-(1-methyl-1H-pyrazol-4-yl)pyridin-3-yl)-5-(trifluoromethoxy)benzenesulfonamide]"
4,< 0.1,"COc1ccc(Cl)cc1S(=O)(=O)Nc1cncc(-c2ccoc2)c1 [Example III-72, 5-Chloro-N-(5-(furan-3-yl)pyridin-3-yl)-2-methoxybenzenesulfonamide]"
5,0.1 to 1,"CCN(CC)c1ccc(NS(=O)(=O)c2cc(Br)ccc2OC)cn1 [Example VIII-9, 5-Bromo-N-(6-(diethylamino)pyridin-3-yl)-2-methoxybenzenesulfonamide]"
6,< 0.1,"COc1ccc(OC)c(S(=O)(=O)Nc2cncc(C(=O)OC3CCCCC3)c2)c1 [Example IV-14, Cyclohexyl 5-(2,5-dimethoxyphenylsulfonamido)nicotinate]"
7,< 0.1,"COc1ccc(Cl)cc1S(=O)(=O)Nc1cncc(C(=O)OC2CCCCC2)c1 [Example IV-9, Cyclohexyl 5-(5-chloro-2-methoxyphenylsulfonamido)nicotinate]"
8,> 1,"C=CCN(c1cnc2ccccc2c1)S(=O)(=O)c1cc(OC)ccc1OC [Example VII-20, N-Allyl-2,5-dimethoxy-N-(quinolin-3-yl)benzenesulfonamide]"
9,> 1,"CCCNC(=O)c1ccc(OC)c(S(=O)(=O)Nc2cccnc2)c1 [Example I-18, 4-Methoxy-N-propyl-3-(pyridin-3-ylsulfamoyl)-benzamide]"
10,0.1 to 1,"CNC(=O)c1cncc(NS(=O)(=O)c2cc(Br)ccc2OC)c1 [Example IV-16, 5-(5-Bromo-2-methoxyphenylsulfonamido)-N-methylnicotinamide]"
11,< 0.1,"COc1ccc(OC)c(S(=O)(=O)Nc2cncc(-c3cncs3)c2)c1 [Example III-82, 2,5-Dimethoxy-N-(5-(thiazol-5-yl)pyridin-3-yl)benzenesulfonamide]"
12,> 1,"COc1ccc(C(=O)N2CCOCC2)cc1S(=O)(=O)Nc1cccnc1 [Example I-23, 2-Methoxy-5-(morpholine-4-carbonyl)-N-pyridin-3-yl-benzenesulfonamide]"
13,> 1,"COCCNc1ccc(NS(=O)(=O)c2cc(Br)ccc2OC)cn1 [Example VIII-11, 5-Bromo-2-methoxy-N-(6-((2-methoxyethyl)amino)pyridin-3-yl)benzenesulfonamide]"
14,> 1,"COC(=O)c1cncc(N(C)S(=O)(=O)c2cc(OC)ccc2OC(F)(F)F)c1 [Example XII-23, 5-[(5-Methoxy-2-trifluoromethoxy-benzenesulfonyl)-methyl-amino]-nicotinic Acid Methyl Ester]"
15,< 0.1,"O=C(OC1CCCCC1)c1cncc(NS(=O)(=O)c2cc(Cl)ccc2OC(F)(F)F)c1 [Example XII-3, Cyclohexyl 5-(5-chloro-2-(trifluoromethoxy)phenylsulfonamido)nicotinate]"
16,< 0.1,"COc1ccc(-c2cncc(NS(=O)(=O)c3cc(OC)ccc3OC)c2)c(OC)c1 [Example III-55, N-(5-(2,4-Dimethoxyphenyl)pyridin-3-yl)-2,5-dimethoxybenzenesulfonamide]"
17,0.1 to 1,"CNC(=O)c1cncc(NS(=O)(=O)c2cc(OC)ccc2OC)c1 [Example IV-37, 5-(2,5-Dimethoxyphenylsulfonamido)-N-methylnicotinamide]"
18,< 0.1,"O=S(=O)(Nc1cncc(-c2cscn2)c1)c1cc(Br)ccc1OC(F)(F)F [Example XI-29, 5-Bromo-N-(5-(thiazol-4-yl)pyridin-3-yl)-2-(trifluoromethoxy)benzenesulfonamide]"
19,< 0.1,"COc1ccc(OC(F)(F)F)cc1S(=O)(=O)Nc1cncc(C(=O)OC2CCCCC2)c1 [Example XII-17, Cyclohexyl 5-(2-methoxy-5-(trifluoromethoxy)phenylsulfonamido)nicotinate]"
20,< 0.1,"COc1ccc(OC(F)(F)F)cc1S(=O)(=O)Nc1cncc(-c2ccco2)c1 [Example XI-13, N-(5-(Furan-2-yl)pyridin-3-yl)-2-methoxy-5-(trifluoromethoxy)benzenesulfonamide]"
21,< 0.1,"COc1ccc(OC)c(S(=O)(=O)Nc2cncc(-c3nccs3)c2)c1 [Example III-79, 2,5-Dimethoxy-N-(5-(thiazol-2-yl)pyridin-3-yl)benzenesulfonamide]"
22,0.1 to 1,"COc1ccc(OC)c(S(=O)(=O)Nc2cncc(-c3cccc(Cl)c3)c2)c1 [Example III-52, N-[5-(3-Chloro-phenyl)-pyridin-3-yl]-2,5-dimethoxy-benzenesulfonamide]"
23,< 0.1,"COc1ccc(Br)cc1S(=O)(=O)Nc1cncc(-c2cccnc2)c1 [Example III-62, N-([3,3′-Bipyridin]-5-yl)-5-bromo-2-methoxybenzenesulfonamide]"
24,< 0.1,"COc1ccc(Br)cc1S(=O)(=O)Nc1cncc(-c2cncs2)c1 [Example III-83, 5-Bromo-2-methoxy-N-(5-(thiazol-5-yl)pyridin-3-yl)benzenesulfonamide]"
25,0.1 to 1,"COc1ccc(-c2ccncc2)cc1S(=O)(=O)Nc1cnc2ccccc2c1 [Example II-9, 2-Methoxy-5-pyridin-4-yl-N-quinolin-3-yl-benzenesulfonamide]"
26,< 0.1,"COc1ccc(OC(F)(F)F)cc1S(=O)(=O)Nc1cncc(-c2cccs2)c1 [Example XI-16, 2-Methoxy-N-(5-(thiophen-2-yl)pyridin-3-yl)-5-(trifluoromethoxy)benzenesulfonamide]"
27,0.1 to 1,"COc1ccc(Br)cc1S(=O)(=O)Nc1cncc(-c2cccc(Cl)c2)c1 [Example III-53, 5-Bromo-N-[5-(3-chloro-phenyl)-pyridin-3-yl]-2-methoxy-benzenesulfonamide]"
28,> 1,"Cc1ccc(OC(F)(F)F)cc1S(=O)(=O)Nc1cnc2ccccc2c1 [Example X-5, 2-methyl-N-quinolin-3-yl-5-trifluoromethoxy-benzenesulfonamide]"

row,SMILES,IC50 [µM]
1,"COC(=O)c1cncc(NS(=O)(=O)c2cc(Cl)ccc2OC(F)(F)F)c1 [Example XII-1, Methyl 5-(5-chloro-2-(trifluoromethoxy)phenylsulfonamido)nicotinate]",0.1 to 1
2,"COc1ccc(Br)cc1S(=O)(=O)Nc1ncco1 [Example V-3, 5-Bromo-2-methoxy-N-oxazol-2-yl-benzenesulfonamide]",> 1
3,COc1ccc(Cl)cc1S(=O)(=O)Nc1cncc(-c2ccc(O)cc2)c1,< 0.1
4,O=C(O)c1cncc(NS(=O)(=O)c2cc(Cl)ccc2OC(F)(F)F)c1,0.1 to 1
5,"COc1ccc(OC)c(S(=O)(=O)Nc2cnc3ccc(C(N)=O)cc3c2)c1 [Example IX-10, 3-(2,5-Dimethoxy-benzenesulfonylamino)-quinoline-6-carboxylic Acid Amide]",0.1 to 1
6,"COc1ccc(Br)cc1S(=O)(=O)Nc1cnc2ccc(C(=O)O)cc2c1 [Example IX-5, 3-(5-Bromo-2-methoxy-benzenesulfonylamino)-quinoline-6-carboxylic Acid]",0.1 to 1
7,"COc1ccc(OC(F)(F)F)cc1S(=O)(=O)Nc1cncc(-c2cnccn2)c1 [Example XI-22, 2-Methoxy-N-(5-(pyrazin-2-yl)pyridin-3-yl)-5-(trifluoromethoxy)benzenesulfonamide]",0.1 to 1
8,"COc1ccc(Br)cc1S(=O)(=O)Nc1ccc(Nc2ccccc2)nc1 [Example VIII-15, 5-Bromo-2-methoxy-N-(6-(phenylamino)pyridin-3-yl)benzenesulfonamide]",> 1
9,"COc1ccc(-c2ccccc2)cc1S(=O)(=O)Nc1cnc2ccccc2c1 [Example II-6, 4-Methoxy-biphenyl-3-sulfonic acid quinolin-3-ylamide]",0.1 to 1
10,"O=S(=O)(Nc1cncc(-c2ccccn2)c1)c1cc(Br)ccc1OC(F)(F)F [Example XI-18, N-([2,3′-Bipyridin]-5′-yl)-5-bromo-2-(trifluoromethoxy)benzenesulfonamide]",0.1 to 1
11,"CNC(=O)c1cncc(NS(=O)(=O)c2cc(Cl)ccc2OC(F)(F)F)c1 [Example XII-6, 5-(5-Chloro-2-(trifluoromethoxy)phenylsulfonamido)-N-methylnicotinamide]",0.1 to 1
12,"COc1ccc(Br)cc1S(=O)(=O)Nc1cncc(-c2ccc(Cl)cc2)c1 [Example III-20, 5-Bromo-N-[5-(4-chloro-phenyl)-pyridin-3-yl]-2-methoxy-benzenesulfonamide]",0.1 to 1
13,"COC(=O)c1cncc(NS(=O)(=O)c2cc(OC(F)(F)F)ccc2OC)c1 [Example XII-15, Methyl 5-(2-methoxy-5-(trifluoromethoxy)phenylsulfonamido)nicotinate]",0.1 to 1
14,"COC(=O)c1cncc(NS(=O)(=O)c2cc(Br)ccc2OC(F)(F)F)c1 [Example XII-9, Methyl 5-(5-bromo-2-(trifluoromethoxy)phenylsulfonamido)nicotinate]",0.1 to 1
